Laboratory results from ChEMBL document CHEMBL1777701, “Glucosides with cyclic diarylpolynoid as novel C-aryl glucoside SGLT2 inhibitors” (Bioorg Med Chem Lett, 2011).

target: T1, Sodium/glucose cotransporter 2 (Homo sapiens, UniProt P31639); experiment: Inhibition of human SGLT2 expressed in CHO cells using methyl-alpha-D-glucopyranoside by liquid scintillation counting; format: cell-based
T1 sequence (P31639 whole entry): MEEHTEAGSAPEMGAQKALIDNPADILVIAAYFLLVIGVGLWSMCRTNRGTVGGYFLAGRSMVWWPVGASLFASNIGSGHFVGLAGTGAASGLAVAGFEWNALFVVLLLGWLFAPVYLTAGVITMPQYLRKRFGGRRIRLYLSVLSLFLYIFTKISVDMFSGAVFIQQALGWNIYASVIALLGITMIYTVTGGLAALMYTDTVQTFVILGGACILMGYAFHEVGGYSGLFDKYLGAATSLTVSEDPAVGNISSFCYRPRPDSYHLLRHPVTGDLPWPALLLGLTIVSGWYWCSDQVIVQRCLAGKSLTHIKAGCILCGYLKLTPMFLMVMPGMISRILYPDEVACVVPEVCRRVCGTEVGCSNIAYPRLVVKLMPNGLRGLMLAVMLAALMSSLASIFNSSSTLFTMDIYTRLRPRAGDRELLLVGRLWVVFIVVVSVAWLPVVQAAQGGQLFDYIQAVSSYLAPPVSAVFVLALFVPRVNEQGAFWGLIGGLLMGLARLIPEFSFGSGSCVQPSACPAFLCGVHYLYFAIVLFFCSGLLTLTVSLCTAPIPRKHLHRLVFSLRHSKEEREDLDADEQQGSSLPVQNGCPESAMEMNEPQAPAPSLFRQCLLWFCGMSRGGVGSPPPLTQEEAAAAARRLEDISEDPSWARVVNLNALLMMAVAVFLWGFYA

| IC50 | Structure (SMILES) |
| --- | --- |
| 103 nM | OC[C@H]1O[C@@H](c2ccc3c(c2)Cc2ccc(cc2)OC/C=C/CCCC3)[C@H](O)[C@@H](O)[C@@H]1O |
| 81.9 nM | OC[C@H]1O[C@@H](c2ccc3c(c2)Cc2ccc(cc2)OCCCCCC3)[C@H](O)[C@@H](O)[C@@H]1O |
| 99.7 nM | OC[C@H]1O[C@@H](c2ccc3c(c2)Cc2ccc(cc2)OCCCCCCC3)[C@H](O)[C@@H](O)[C@@H]1O |
| 89.6 nM | OC[C@H]1O[C@@H](c2ccc3c(c2)Cc2ccc(cc2)OC/C=C/CCC3)[C@H](O)[C@@H](O)[C@@H]1O |
